Here are results for eight compounds from paper PMC10756276, “Highly specific σ2R/TMEM97 ligand FEM-1689 alleviates neuropathic pain and inhibits the integrated stress response” (Proceedings of the National Academy of Sciences of the …, 2023).

“Also recorded” adds a separate entry of the source.

Experiment [1] relates to mechanical hypersensitivity. Also on record: method as in PMID 30157134, PMID 32677089. To be noted: cited from earlier work.
In experiment [2] the test system is p-ACC in mouse DRG neurons. As to the kind of experiment: p-ACC immunocytochemistry in cultured DRG neurons. To be noted: 16 h; FEM-1689 10, 100, 1,000 nM; A769662 100 µM; wild-type and TMEM97KO neurons. Type of experiment: cell-based. The method, then:
(§1) The ICC protocol was based on a previously published protocol ([76]). […] Cells were blocked with 10% normal goat serum (NGS) in PBS-triton X (0.1%). […] Antibodies were incubated at 4 °C overnight. […] It was washed with PBS twice. […] Images were analyzed using Olympus CellSens. […] Number of cells analyzed are detailed in SI Appendix, Tables S3 and S4. […]
(§2) T his BSA gradient containing the cells was centrifuged at 900g for 5 min at room temperatur e.
(§3) The pellet containing the cells was resuspended in Br ainPhys media (STEMCell #05790) containing 2% […]
(§4) 1% Gluta Max (Gibco # 350 5 0061). Hu man DRG ne uron s were plated a nd grown o n glass coverslips coate d with po ly-D-lysine (Sigma #P7405). C ultured D RG neurons were plated for 24 hours before being treated.
(§5) Methylglyoxal (Sigma- Aldrich #M0252) and F EM- 1689 were serially diluted in media.
(§6) Mouse samples - DRG cultures […]
(§7) anesthesia and decapitated. […]
(§8) section above with minor differences.
(§9) Mouse DRG neurons were grown in
(§10) SAS-0132 and DKR-1677 were […]
(§11) dissolved in 100% DMSO to a final concentr ation of 200mM and stored at - 20 °C. and DKR-1677 were serially diluted in media. Untreated media was completely replaced with media containing each compound. […]
(§12) Slides were […]
incubated with 1:2 diluted hydrogen peroxide in distilled water for 10 min at r oom temper ature and washed twice in distilled water. […]

Experiment [3] concerns p-eIF2α in mouse DRG neurons. As to the kind of experiment: p-eIF2α immunocytochemistry in cultured DRG neurons. Type of experiment: cell-based. To be noted: 16 h; for phosphorylation of eIF2α: wild-type mouse DRG neurons, 10, 30, 100, 300 nM; for p-eIF2α levels: ISRIB 200 nM. The method, then:
as §1, §2, §3, §4, §5, §6, §7, §8, §9, §10, §11, §12
(§13) incubated with 1:2 diluted hydrogen peroxide in distilled water for 10 min at r oom temper ature and washed twice in distilled water. The protease IV was applied to each section and incubated for 5 min at room temperature. Slides were w ashed twice in 1X PBS and RNA scope was performed immediately. A mixture of probes - Tmem97, Scn10a, and Fabp7 – was hybridized for 2 hours at 40 °C in a humidity control tray

In a further experiment the test system is retinal ganglion cells. Also noted: method as in PMID 36456686. Particulars: ischemia/reperfusion injury; cited from earlier work.
The test system of experiment [4] is models of traumatic brain injury (TBI). Particulars: blast injury and controlled cortical impact models; cited from earlier work.
A further experiment has as its system neurite outgrowth. Also on record: method as in PMID 31836389. To be noted: cited from earlier work.
Experiment [5] has as its system MGO-induced mechanical hypersensitivity, wild-type mice. As to the kind of experiment: Methylglyoxal-induced mechanical hypersensitivity. It is filed as in vivo, mouse.
Another experiment deals with BiP in mouse DRG neurons. As to the kind of experiment: BiP immunocytochemistry in cultured DRG neurons. It is filed as cell-based. To be noted: ISRIB 200 nM. The procedure:
as §1, §2, §3, §4, §5, §6, §7, §8, §9, §10, §11, §12, §13

For experiment [6], the system named is p-eIF2α in human DRG neurons. As to the kind of experiment: p-eIF2α immunocytochemistry in cultured human DRG neurons. To be noted: MGO 1 µM. Type of experiment: cell-based.
Experiment [7] concerns animal models of age-related neurodegeneration. Also noted: method as in PMID 27926996, PMID 29426225. To be noted: cited from earlier work.
The subject of experiment [8] is mouse model of neuropathic pain. Also noted: method as in PMID 28644012, PMID 27926996. Particulars: cited from earlier work; for mechanical hypersensitivity / antinociceptive effect: mouse neuropathic pain model.
Experiment [9] concerns neuronal toxicity induced by mutant huntingtin protein. Also on record: method as in PMID 36108101. To be noted: model of Huntington's disease; cited from earlier work.
In another experiment the target is BZP Rat Brain. As to the kind of experiment: PDSP competitive binding assay. Particulars: dose response curve.

`O=C(O)CCCc1ccccc1` [4-PBA]: the “duration of efficacy on mechanical hypersensitivity in vivo” value in [1] is “hours”.
`N#Cc1c(O)c2c(-c3ccc(-c4ccccc4O)cc3)csc2[nH]c1=O` [A769662, reference compound]: in experiment [2], the p-ACC levels result is “elevate; also recorded: increased p-ACC levels in both wild-type and TMEM97KO neurons”.
For the compound `CCCN1CCN(c2ccc3c(c2)C2CC3CCN2C(=O)OCc2ccccc2)CC1` (stereo not shown) [DKR-1677, reference compound], the “phosphorylation of eIF2α” value in [3] is recorded as “promote the phosphorylation of eIF2α; also recorded: stimulate the ISR by promoting the phosphorylation of eIF2α”. Besides, in the experiment on retinal ganglion cells, the “protection of retinal ganglion cells” value was “protects retinal ganglion cells from ischemia/reperfusion injury”. In addition, the “protection in traumatic brain injury” value in experiment [4] is “protective in two different models of traumatic brain injury”.
Regarding `O=C(COc1ccc(Cl)cc1)NC1CCC(NC(=O)COc2ccc(Cl)cc2)CC1` (stereo not shown) [ISRIB, reference compound], in [1], the “duration of efficacy on mechanical hypersensitivity in vivo” value is listed as “hours”. Also, the figures for the p-eIF2α levels result in [3] (TMEM97KO mouse DRG neurons) and in experiment [3] (wild-type mouse DRG neurons) were “failed to change p-eIF2α immunoreactivity” and “reduced p-eIF2α levels in wild-type neurons”, respectively. Further, the neurite outgrowth entry in the experiment with neurite outgrowth was “enhances neurite outgrowth”. In [5] (ISRIB 2.5 mg/kg IP), the “time after drug administration at which antiallodynic effects were observed” value is 3 h. The MGO-induced mechanical hypersensitivity result in experiment [5] (MGO 20 ng intraplantar, FEM-1689 20 mg/kg IV or ISRIB 2.5 mg/kg IP 24 h after MGO) is “transient; also recorded: reverted to a hypersensitive state 24 h after injection”. Besides, the BiP levels result with BiP in mouse DRG neurons (TMEM97KO mouse DRG neurons) and in the experiment with BiP in mouse DRG neurons (wild-type mouse DRG neurons) was “reduce BiP levels” each time.
`CC(=O)C=O` [MGO, Methylglyoxal, reference compound]: in experiment [6], the p-eIF2α levels result is given as “increased p-eIF2α levels”.
In the case of `CN1CCN(c2ccc3c(c2)C2CC3CCN2C(=O)OCc2ccccc2)CC1` (stereo not shown) [SAS-0132], the “neuroprotection and cognitive performance” value in experiment [7] is “neuroprotective and improves cognitive performance”. Also, the “phosphorylation of eIF2α” value in experiment [3] was “promote the phosphorylation of eIF2α; also recorded: stimulate the ISR by promoting the phosphorylation of eIF2α”. Moreover, in experiment [8], the “effect on the antinociceptive effects of UKH-1114” value is “inhibit the antinociceptive effects of UKH-1114; also recorded: blocks the antinociceptive activity of UKH-1114” and the “mechanical hypersensitivity / antinociceptive effect” value was “has no antinociceptive effect on its own”.
Regarding `OCCCN1CCCC2CC1c1cc(-c3ccc(C(F)(F)F)cc3)ccc12` (stereo not shown) [UKH-1114], the neuronal toxicity entry in experiment [9] was “reduces neuronal toxicity”. Besides, the “mechanical hypersensitivity / antinociceptive effect” value in experiment [8] is on record as “alleviates mechanical hypersensitivity following nerve injury”.
Turning to `O=C1CN=C(c2ccccc2Cl)c2cc([N+](=O)[O-])ccc2N1` [clonazepam, reference compound], the “LogKi, BZP Rat Brain” value at BZP Rat Brain (given as LogKi with negative sign) was -8.89. In addition, at BZP Rat Brain (read-out: Ki, BZP Rat Brain), the Ki (commonly a dissociation constant, usually derived from enzyme kinetics or from competition with a known ligand) came out at 1.29 nM.
